This is an account of results in paper PMC7598271, “In Vitro Studies to Define the Cell-Surface and Intracellular Targets of Polyarginine-Conjugated Sodium Borocaptate as a Potential Delivery Agent for Boron Neutron Capture Therapy” (Cells, 2020).

For data set [1], the system named is U251MG cells. The experiment in a line: Immunofluorescent analysis of cellular uptake with anti-BSH antibody. The note with it: U251 glioma cells, 20 µM, immunofluorescent analysis (Figure 1B). Format: cell-based, human. The procedure: Human glioma cell lines U87MG and U251MG, human breast cancer cell lines MCF7 and MDA-MB-231, human pancreatic cancer cell lines CFPAC1 and PANC1, and murine mammary gland cell line NMuMG, were cultured in Dulbecco’s modified Eagle’s medium (DMEM) (FUJIFILM Wako Pure Chemical Corporation, Osaka, Japan) with 10% fetal bovine serum (FBS) (Corning Inc., Corning, NY, USA) and penicillin/streptomycin/L-glutamine (Fujifilm-Wako, Japan) as previously described. U87MG, MDA-MB-231, CFPAC-1, PANC-1, and NMuMG were obtained from the American Type Culture Collection (ATCC, Manassas, VA, USA) (catalogue number: HTB-14, HTB-26, CRL-1918, CRL-1469, and CRL-1636, respectively). U251MG and MCF7 were obtained from the Japanese Collection of Research Bioresources Cell Bank (JCRB, Ibaraki, Japan) (catalogue number: IFO50288 and JCRB0134, respectively).
(§1) The immunostaining of cells was performed as previously described with brief modifications. The cells were fixed with 4% paraformaldehyde (PFA) for 15 min, permeated with 0.05% Triton X-100 for 10 min, and blocked with 5% goat serum. Then, the samples were incubated with primary antibodies for 16 h at 4 °C and secondary antibodies for 1 h at room temperature. Primary antibodies against CD44 were purchased from Abcam (Cambridge, UK) (ab157107). Antibodies against the BSH molecule (clone#: 36-2H or 38-5C) were developed by ITM Co., Ltd. (Nagano, Japan). […]

In data set [2] the test system is CD44 protein. The data set is described as follows: Immunoprecipitation with anti-BSH antibody and Western blotting for CD44. Format: binding, human. The following applies: MDA-MB-231 cell lysate 2000 µg/mL, compound 20 µM, 1 h at 4 °C, anti-BSH antibody 10 µg/mL, Western blotting (Figure 3A). As to the method: (§2) Western blotting was performed as previously described. The cells were lysed in cell lysis buffer (20 mM Tris-HCl (pH =7.5), 150 mM NaCl, 1 mM EDTA, 1 mM Na2EGTA (ethylene glycol-bis(β-aminoethyl ether)-N,N,N′,N′-tetraacetic acid), 0.5% Triton X-100) supplemented with cOmplete Protease Inhibitor Cocktail (Sigma-Aldrich Co. LLC, St. Louis, MO, USA), and PhosSTOP phosphatase inhibitor cocktail (Sigma-Aldrich Co. LLC, St. Louis, MO, USA). After sonication and centrifugation (15,000 rpm, 4 °C, 10 min), the protein concentration of the supernatants was measured using a bicinchoninic acid (BCA) protein assay (Thermo Fisher Scientific, Inc., Waltham, MA, USA). The supernatants were added to 1/3 volume of 4x SDS sample buffer (240 mM Tris-HCl (pH=6.8), 8% sodium dodecyl sulfate (SDS), 40% glycerol, 0.1% bromophenol blue, 20% 2-mercaptoethanol) and boiled at 95 °C for 5 min. Then, the samples were applied to SDS-polyacrylamide gel electrophoresis (PAGE) and transferred to polyvinylidene fluoride (PVDF) membrane (Immobilon-P, 0.45 µm) (MilliporeSigma, Burlington, MA, USA). […] The signals were developed with Clarity Western enhanced chemiluminescence (ECL) Substrate (Bio-Rad Laboratories, Inc., Hercules, CA, USA) and detected with a ChemiDoc imaging system (Bio-Rad Laboratories, Inc., Hercules, CA, USA). […]
A general note: In western blotting, separated proteins are transferred to a membrane and probed.

In data set [3] the test system is NMuMG-GFP, NMuMG-HRas/shp53 and NMuMG-HRas/shp53/YAP1 cells. The data set is described as follows: Immunofluorescent analysis of uptake in transformed NMuMG cells. Format: cell-based, murine. The following applies: BSH 2 mM, NMuMG-HRas/shp53, NMuMG-HRas/shp53/YAP1 (Figure 4C).
Source text: For transformation of the NMuMG cells, we prepared virus particles of pTomo-HRas/shRNA-p53 (Vector plasmid was a kind gift from Dr. Dinorah Morvinski, Tel Aviv University), pTomo (Addgene, #26291), FUW-tetO-wtYAP (Addgene, #84009), and FUdeltaGW-rtTA (Addgene, #19780), and infected cells in the same manner as written above. After the infection of pTomo viruses (pTomo-HRas/shRNA-p53 was used for malignant transformation, with pTomo for a negative control), the cells were further treated with adenovirus harboring Cre recombinase (cat#ADV-005) (Cell Biolabs Inc., San Diego, CA, USA), to activate the HRas expression cassette. The transformation was confirmed by the acquisition of the spheroid-forming capacity and morphological change (epithelial to spindle form).
as §1

The target of data set [4] is T1, poly(A)-binding protein 1 (PABP1) (Homo sapiens, UniProt P11940).
T1 construct: we performed immunoprecipitation from the pre-cleaned lysate of U251 cells; endogenous in cells; host or cells: U251 (U251MG) glioma cells
The experiment in a line: Immunoprecipitation with anti-BSH antibody from U251 cell lysate, Western blotting. As to the method:
(§3) Western blotting was performed as previously described. The cells were lysed in cell lysis buffer (20 mM Tris-HCl (pH =7.5), 150 mM NaCl, 1 mM EDTA, 1 mM Na2EGTA (ethylene glycol-bis(β-aminoethyl ether)-N,N,N′,N′-tetraacetic acid), 0.5% Triton X-100) supplemented with cOmplete Protease Inhibitor Cocktail (Sigma-Aldrich Co. LLC, St. Louis, MO, USA), and PhosSTOP phosphatase inhibitor cocktail (Sigma-Aldrich Co. LLC, St. Louis, MO, USA). After sonication and centrifugation (15,000 rpm, 4 °C, 10 min), the protein concentration of the supernatants was measured using a bicinchoninic acid (BCA) protein assay (Thermo Fisher Scientific, Inc., Waltham, MA, USA). The supernatants were added to 1/3 volume of 4x SDS sample buffer (240 mM Tris-HCl (pH=6.8), 8% sodium dodecyl sulfate (SDS), 40% glycerol, 0.1% bromophenol blue, 20% 2-mercaptoethanol) and boiled at 95 °C for 5 min. Then, the samples were applied to SDS-polyacrylamide gel electrophoresis (PAGE) and transferred to polyvinylidene fluoride (PVDF) membrane (Immobilon-P, 0.45 µm) (MilliporeSigma, Burlington, MA, USA). The membranes were blocked with 0.5% skim milk (nacalai tesque, Kyoto, Japan) in tris-buffered saline with tween20 (TBST, 137 mM NaCl, 2.68 mM KCl, 25 mM Tris (pH=7.4), 0.1% Tween20) and incubated with primary antibodies for 16 h at 4 °C and secondary antibodies for 1 h at room temperature. The signals were developed with Clarity Western enhanced chemiluminescence (ECL) Substrate (Bio-Rad Laboratories, Inc., Hercules, CA, USA) and detected with a ChemiDoc imaging system (Bio-Rad Laboratories, Inc., Hercules, CA, USA).
(§4) Immunoprecipitation was performed as previously described with modification. Briefly, the cells were lysed in cell lysis buffer supplemented with cOmplete Protease Inhibitor Cocktail and PhosSTOP phosphatase inhibitor cocktail. The lysate was passed through a 23G needle syringe 10 times and centrifuged at 15,000 rpm, at 4 °C, for 10 min. […]

The target in data set [5] is T2, eIF4G (Homo sapiens, UniProt Q04637).
T2 construct: we performed immunoprecipitation from the pre-cleaned lysate of U251 cells; endogenous in cells; host or cells: U251 (U251MG) glioma cells
The data set is described as above. Format: binding. As to the method: as §3, §4

Data set [6] concerns the target T3, eRF3 (Homo sapiens, UniProt P15170).
T3 construct: we performed immunoprecipitation from the pre-cleaned lysate of U251 cells; endogenous in cells; host or cells: U251 glioma cell lysate
The description is as above. The data set is classed as binding. The note with it: lysate with or without 10 µg/mL RNase A, 1 h at room temperature (Figure 6B). As to the method: as §3, §4

Data set [7] addresses T4, eIF4A (Homo sapiens, UniProt P60842).
T4 construct: we performed immunoprecipitation from the pre-cleaned lysate of U251 cells; endogenous in cells; host or cells: U251 glioma cell lysate
The description is as above. Format: binding. The note with it: lysate with or without 10 µg/mL RNase A, 1 h at room temperature (Figure 6B). The procedure:
as §2

[8] abbreviates: immunoprecipitation with 20 µM of BSH, BSH-3R, BSH-11R (Figure 7A).
Setting [9] is: lysate with or without 10 µg/mL RNase A, 1 h at room temperature (Figure 6B).

T1 sequence (P11940 whole entry): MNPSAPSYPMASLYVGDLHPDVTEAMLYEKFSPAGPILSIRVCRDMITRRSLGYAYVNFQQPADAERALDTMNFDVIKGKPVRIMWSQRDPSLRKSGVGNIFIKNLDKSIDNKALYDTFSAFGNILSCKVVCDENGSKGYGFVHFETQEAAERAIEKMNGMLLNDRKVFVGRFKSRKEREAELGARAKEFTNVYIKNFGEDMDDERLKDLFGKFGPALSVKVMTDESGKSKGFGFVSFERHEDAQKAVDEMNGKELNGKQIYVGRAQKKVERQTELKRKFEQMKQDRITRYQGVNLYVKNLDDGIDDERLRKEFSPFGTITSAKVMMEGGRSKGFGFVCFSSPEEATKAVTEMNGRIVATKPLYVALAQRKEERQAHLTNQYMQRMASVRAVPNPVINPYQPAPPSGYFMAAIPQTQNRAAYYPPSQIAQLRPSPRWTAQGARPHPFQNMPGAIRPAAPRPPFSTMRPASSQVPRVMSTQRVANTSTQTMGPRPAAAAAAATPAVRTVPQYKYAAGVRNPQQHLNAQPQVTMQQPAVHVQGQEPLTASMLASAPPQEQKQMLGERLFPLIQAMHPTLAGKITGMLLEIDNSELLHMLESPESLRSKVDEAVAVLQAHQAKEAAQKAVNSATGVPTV
T2 sequence (Q04637 whole entry): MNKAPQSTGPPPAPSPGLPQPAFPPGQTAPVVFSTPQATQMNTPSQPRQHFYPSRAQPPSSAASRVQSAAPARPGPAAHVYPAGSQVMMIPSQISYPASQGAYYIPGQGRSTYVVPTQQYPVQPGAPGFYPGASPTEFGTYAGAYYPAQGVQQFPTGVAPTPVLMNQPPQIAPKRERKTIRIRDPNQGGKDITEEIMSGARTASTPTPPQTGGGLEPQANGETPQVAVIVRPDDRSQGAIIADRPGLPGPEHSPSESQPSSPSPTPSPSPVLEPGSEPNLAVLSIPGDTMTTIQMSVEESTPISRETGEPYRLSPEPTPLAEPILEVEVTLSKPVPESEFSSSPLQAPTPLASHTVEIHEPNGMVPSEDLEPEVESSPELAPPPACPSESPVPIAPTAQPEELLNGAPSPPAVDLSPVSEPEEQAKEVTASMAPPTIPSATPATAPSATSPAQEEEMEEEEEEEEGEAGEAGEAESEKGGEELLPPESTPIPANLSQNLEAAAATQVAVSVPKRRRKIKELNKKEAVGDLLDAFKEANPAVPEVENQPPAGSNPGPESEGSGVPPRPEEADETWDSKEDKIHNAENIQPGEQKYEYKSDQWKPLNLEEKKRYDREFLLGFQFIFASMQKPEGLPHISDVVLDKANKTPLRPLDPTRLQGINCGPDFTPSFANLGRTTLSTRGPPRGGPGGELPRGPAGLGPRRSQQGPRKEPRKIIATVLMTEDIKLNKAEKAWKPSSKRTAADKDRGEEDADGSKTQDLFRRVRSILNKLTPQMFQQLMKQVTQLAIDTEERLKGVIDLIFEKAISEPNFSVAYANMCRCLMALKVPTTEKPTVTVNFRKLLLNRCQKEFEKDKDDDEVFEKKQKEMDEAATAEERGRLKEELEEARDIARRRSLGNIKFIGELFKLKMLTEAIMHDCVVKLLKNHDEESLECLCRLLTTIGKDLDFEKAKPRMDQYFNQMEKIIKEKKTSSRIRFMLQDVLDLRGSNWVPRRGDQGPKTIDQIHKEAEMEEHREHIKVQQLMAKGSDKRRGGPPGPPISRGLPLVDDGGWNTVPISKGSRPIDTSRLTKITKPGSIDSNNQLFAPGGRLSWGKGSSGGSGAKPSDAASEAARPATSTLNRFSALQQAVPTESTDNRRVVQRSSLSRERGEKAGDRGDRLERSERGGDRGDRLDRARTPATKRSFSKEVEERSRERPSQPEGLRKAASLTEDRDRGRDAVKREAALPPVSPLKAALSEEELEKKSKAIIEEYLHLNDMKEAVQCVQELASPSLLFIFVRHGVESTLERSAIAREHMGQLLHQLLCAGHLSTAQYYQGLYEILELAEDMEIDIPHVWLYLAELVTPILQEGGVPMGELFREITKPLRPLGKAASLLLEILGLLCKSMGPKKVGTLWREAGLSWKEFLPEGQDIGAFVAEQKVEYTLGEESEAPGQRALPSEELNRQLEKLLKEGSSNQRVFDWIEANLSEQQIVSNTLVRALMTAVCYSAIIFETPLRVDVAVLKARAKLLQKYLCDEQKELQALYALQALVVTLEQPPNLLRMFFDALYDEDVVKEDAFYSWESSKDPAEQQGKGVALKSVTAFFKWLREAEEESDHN
T4 sequence (P60842 whole entry): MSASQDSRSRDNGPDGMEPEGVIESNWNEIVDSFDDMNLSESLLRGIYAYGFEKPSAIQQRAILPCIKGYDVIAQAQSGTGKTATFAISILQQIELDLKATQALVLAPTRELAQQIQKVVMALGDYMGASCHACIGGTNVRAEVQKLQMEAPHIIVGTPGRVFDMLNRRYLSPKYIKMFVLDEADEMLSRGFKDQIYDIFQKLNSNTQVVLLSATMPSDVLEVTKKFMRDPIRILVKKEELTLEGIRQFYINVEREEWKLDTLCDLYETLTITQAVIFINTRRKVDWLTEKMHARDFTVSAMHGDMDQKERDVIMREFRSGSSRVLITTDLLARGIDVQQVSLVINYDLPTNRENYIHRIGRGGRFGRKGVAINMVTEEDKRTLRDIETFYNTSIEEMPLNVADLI
T3 sequence (P15170 whole entry): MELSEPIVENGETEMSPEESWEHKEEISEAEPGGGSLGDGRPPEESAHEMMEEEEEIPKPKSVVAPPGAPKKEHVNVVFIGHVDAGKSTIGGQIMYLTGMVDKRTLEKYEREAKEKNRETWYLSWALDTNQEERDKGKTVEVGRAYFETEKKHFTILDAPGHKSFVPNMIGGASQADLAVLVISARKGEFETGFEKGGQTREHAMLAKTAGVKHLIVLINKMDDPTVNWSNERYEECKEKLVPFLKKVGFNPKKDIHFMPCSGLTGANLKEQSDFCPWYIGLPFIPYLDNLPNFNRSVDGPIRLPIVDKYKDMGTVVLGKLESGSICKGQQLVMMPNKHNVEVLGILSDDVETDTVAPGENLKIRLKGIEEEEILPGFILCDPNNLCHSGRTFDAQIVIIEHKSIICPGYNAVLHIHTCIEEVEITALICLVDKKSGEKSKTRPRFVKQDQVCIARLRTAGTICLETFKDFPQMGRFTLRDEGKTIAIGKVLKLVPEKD

In the case of mercaptoundecahydrododecaborate [BSH], the “passage through the plasma membrane” value in data set [1] is listed as “could not”. Besides, the “co-precipitation of CD44 protein with anti-BSH antibody” value in data set [2] is “failed to precipitate CD44”. Further, the “BSH immunofluorescent signal in cells” value in data set [3] is “did not show any signals in all types of cells”. For the same substance, in data set [4] (setting [8]), the “PABP1 binding, dependence on arginine length” value is reported as “bound to BSH in an RNA-dependent manner”. The “RNA dependence of binding to PABP1” value in data set [4] (setting [9]) is listed as “bound to PABP1 in the presence of RNA”. In addition, the “binding to PABP1 (immunoprecipitation)” value in data set [4] (pre-cleaned U251 lysate, 20 µM (Figure 6A)) is given as “had a binding capacity with poly(A)-binding protein 1 (PABP1)”. The “eIF4G binding, dependence on arginine length” value in data set [5] (setting [8]) is recorded as “did not observe a significant difference”. Moreover, the “RNA dependence of binding to eIF4G” value in data set [5] (setting [9]) is listed as “little eIF4G was pulled-down with BSH in the presence of RNA”. The “binding to eRF3” value in data set [6] was “did not bind to BSH”. Besides, the “RNA dependence of binding to eIF4A” value in data set [7] was “did not bind to BSH in the presence or absence of RNA”.
